Data taken from ChEMBL document CHEMBL1201862, “PubChem BioAssay data set” (2004).
Calls of active or inactive are those of the source.

Tests used:
[1] = target: Heat shock protein HSP 90-alpha (Homo sapiens, UniProt P07900); format: functional, organism-based
[2] = target: Cytochrome P450 3A4 (Homo sapiens, UniProt P08684); settings: Potency;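 further: confirmatory qHTS run detecting inhibitors and substrates of CYP3A4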
[3] = target: Eukaryotic translation initiation factor 4E (Mus musculus, UniProt P63073); test: blockers of eIF4G binding by eIF4E – biochemical, TR-FRET, dose response (AID 855); format: functional;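 further: potency for disrupting eIF4E binding to eIF4GI seen as loss of FRET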
[4] = target: T1, Cytochrome P450 1A2 (Homo sapiens, UniProt P05177);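 further: PubChem cytochrome P450 panel assay, CYP1A2 panel member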
T1 sequence (P05177 whole entry): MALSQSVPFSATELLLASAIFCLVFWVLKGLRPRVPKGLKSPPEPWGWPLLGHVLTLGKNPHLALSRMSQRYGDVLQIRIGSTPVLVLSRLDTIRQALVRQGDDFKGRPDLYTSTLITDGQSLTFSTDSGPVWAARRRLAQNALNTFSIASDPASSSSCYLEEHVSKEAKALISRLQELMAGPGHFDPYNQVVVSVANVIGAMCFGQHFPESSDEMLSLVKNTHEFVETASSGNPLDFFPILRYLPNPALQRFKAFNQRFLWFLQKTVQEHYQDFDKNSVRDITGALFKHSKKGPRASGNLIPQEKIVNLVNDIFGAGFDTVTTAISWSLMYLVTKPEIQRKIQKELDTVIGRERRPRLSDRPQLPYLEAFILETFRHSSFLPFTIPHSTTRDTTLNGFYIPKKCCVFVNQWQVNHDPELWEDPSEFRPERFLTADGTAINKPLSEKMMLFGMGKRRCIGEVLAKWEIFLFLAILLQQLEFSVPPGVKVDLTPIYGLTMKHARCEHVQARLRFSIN

[5] = cells; format: functional
[6] = Vero E6 cell cytotoxicity, dose response, cytotoxicity control for non-replicating M. tuberculosis project, secondary assay (AID 492998); format: functional, VeroE6; settings: Vero C1008
[7] = THP-1 cell cytotoxicity, dose response, cytotoxicity control for non-replicating M. tuberculosis project (AID 489025); format: functional
[8] = target: T2, Sentrin-specific protease 8 (Homo sapiens, UniProt Q96LD8); format: functional
T2 sequence (Q96LD8 whole entry): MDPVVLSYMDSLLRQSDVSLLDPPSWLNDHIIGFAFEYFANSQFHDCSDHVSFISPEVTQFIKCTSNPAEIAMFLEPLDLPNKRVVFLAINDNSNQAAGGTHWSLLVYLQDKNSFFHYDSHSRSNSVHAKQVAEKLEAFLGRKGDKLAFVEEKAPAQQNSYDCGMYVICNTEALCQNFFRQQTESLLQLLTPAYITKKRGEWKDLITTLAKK

[9] = target: T2, Sentrin-specific protease 8; format: functional; remark: listed apart in the source
[10] = cells; format: functional, cell-based
[11] = test system: INS1; test: INS-1E survival protection against cytokine death – cell-based, luminescence, retest, dose response (AID 449756); format: functional; settings: Rattus norvegicus;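 further: cell death triggered by IL-1 beta plus TNF-alpha plus IFN-gamma mixture; protective hits raise ATP signal compared with cytokine alone wells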
[12] = loss of viability in HepG2 cells – cell-based, CellTiter-Glo, cherry-picked, cytotoxicity control for Shn3 inhibitor project, dose response (AID 624134); format: functional
[13] = cells; format: functional, cell-based; remark: listed apart in the source
[14] = reduction of Shn3 3'UTR-driven luciferase in osteoblasts – cell-based, Clone20 osteoblasts, firefly luciferase, cherry-picked, dose response (AID 624132); format: functional;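 further: firefly luciferase luminescence from reporter carrying the Shn3 3'UTR in osteoblasts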
[15] = non-specific 3'UTR reporter inhibition in Clone20-Shn3RL – cell-based, Renilla luciferase, cherry-picked, counter-screen for Shn3 inhibitor project, dose response (AID 624133); format: functional
[16] = target: T3, Microphthalmia-associated transcription factor (Homo sapiens, UniProt O75030); test: reducers of TRPM1 reporter luminescence, concentration series – cell-based, SK-MEL-5, cherry-picked, set 3, MITF inhibitor project, dose response (AID 493073); format: functional;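 further: SK-MEL-5 melanoma cells with luciferase driven by the MITF target TRPM1 promoter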
T3 sequence (O75030 whole entry): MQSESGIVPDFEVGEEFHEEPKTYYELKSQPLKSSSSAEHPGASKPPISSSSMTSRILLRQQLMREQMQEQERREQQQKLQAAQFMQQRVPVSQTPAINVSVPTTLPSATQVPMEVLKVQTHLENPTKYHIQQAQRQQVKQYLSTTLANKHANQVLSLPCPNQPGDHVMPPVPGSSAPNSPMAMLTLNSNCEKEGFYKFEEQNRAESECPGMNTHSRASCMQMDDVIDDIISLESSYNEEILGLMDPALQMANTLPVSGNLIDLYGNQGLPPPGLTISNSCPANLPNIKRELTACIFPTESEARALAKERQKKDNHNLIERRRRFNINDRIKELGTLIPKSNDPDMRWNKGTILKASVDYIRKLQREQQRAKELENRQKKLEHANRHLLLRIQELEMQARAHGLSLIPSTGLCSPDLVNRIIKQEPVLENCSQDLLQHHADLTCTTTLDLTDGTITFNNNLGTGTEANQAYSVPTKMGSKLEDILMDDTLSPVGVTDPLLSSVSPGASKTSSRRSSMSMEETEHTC

[17] = test system: Vero; test: cells; format: functional; settings: Chlorocebus sabaeus
[18] = target: Nonstructural protein 1 (Influenza A virus, UniProt Q194T2); format: functional, Influenza A virus (A/California/07/2009(H1N1))
[19] = Luminescence Cell-Based Dose Confirmation HTS to Identify Inhibitors of Platelet Dense Granule Release. [Related pubchem assays: 1663 (Primary HTS), 1678 (Summary of Project)]; format: functional
[20] = target: Luciferin 4-monooxygenase (Photinus pyralis, UniProt P08659); test: inhibition of purified Photinus pyralis luciferase – biochemical, luminescence, dose response (AID 1891)
[21] = test system: HEK293; test: inhibition of NOD1-driven NF-kB reporter – cell-based, luminescence, uHTS, primary screen (AID 1578); format: functional; settings: Homo sapiens
[22] = test system: HEK293; test: cells; format: functional, cell-based; settings: Homo sapiens
[23] = viability of HCT116 lacking mutant beta-catenin – cell-based, human colon tumor, dose response (AID 1045); format: functional;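 further: HCT116 colon tumor cells with beta catenin knocked out; cells exposed to compound for 60 hours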
[24] = test system: HEK293; test: cells; format: functional, cell-based; settings: Homo sapiens; remark: listed apart in the source
[25] = test system: HEK293; test: NOD2 signaling inhibitors in MDP-stimulated cells, cell-based, uHTS, luminescence (AID 2001); format: functional; settings: Homo sapiens
[26] = viability of PTEN-deleted HCT116 cells – cell-based, HCT116 PTEN knockout, dose response (AID 1047); format: functional;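 further: HCT116 colon tumor cells with PTEN knocked out; cells exposed to compound for 60 hours before readout; potency for loss of cell viability measured by luminescence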
[27] = target: Genome polyprotein (dengue virus type 2, UniProt P29990); test: flavivirus cap methylation enzyme inhibition – biochemical, confirmation dose response, primary screen (AID 588689); format: functional
[28] = blockers of HIV-1 envelope-mediated cell-cell fusion – cherry-pick, dose response (AID 652057); format: functional, cell-based
[29] = HIV-1 AD8 envelope cell-cell fusion blockers – cherry-pick, dose response (AID 652062); format: functional, cell-based;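 further: luciferase signal from cell-cell fusion driven by HIV-1 clade B AD8 Env; potency is for inhibitors of fusion seen as a drop in luminescence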
[30] = target: Glyceraldehyde-3-phosphate dehydrogenase (Homo sapiens, UniProt P04406)
[31] = test system: BJ; test: cells; format: functional, cell-based; settings: Homo sapiens
[32] = Luminescence Cell-Based Dose Retest to Confirm Inhibitors of Cancer Stem Cells. [Related pubchem assays (depositor defined):AID2717, AID2721]; format: functional; settings: Homo sapiens
[33] = DRD fibroblast viability loss – cell-based, non-viral oncogenic, luminescence, dose response (AID 1934); format: functional; settings: Homo sapiens
[34] = test system: BJ; test: BJ-TERT fibroblast viability loss – cell-based, RAS-independent, luminescence, dose response (AID 1933); format: functional; settings: Homo sapiens
[35] = test system: BJ; test: BJ-TERT-LT-ST fibroblast viability loss – cell-based, RAS-independent, luminescence, dose response (AID 1935); format: functional; settings: Homo sapiens;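 further: BJ fibroblasts immortalized with TERT plus LT and ST oncogenes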
[36] = target: Paired box protein Pax-8 (Homo sapiens, UniProt Q06710); test: PAX8 transcriptional activity inhibition in RMG-I – RMG-I cells, luciferase, cherry-pick, dose response (AID 687027); format: functional, cell-based;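 further: luciferase reporter driven by Pax8 target thyroperoxidase promoter measured by SteadyGlo luminescence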

## O=C1Nc2ccc(Br)cc2/C1=C/C1CC=CCC1 (stereo not drawn)
[1]
  AC50: 8.03 µM (active)

## CCCCNc1nc(C)nc2c1nc(-c1ccccc1)n2CCN(C)C
[2]
  AC50: 15.8 µM (inconclusive)

## CCCn1c(-c2ccc(F)cc2)nc2c(NC3CC4CCC(C3)N4C)nc(C)nc21 (stereo not drawn)
[2]
  AC50: 15.8 µM (inconclusive)

## O=C(O)c1ccccc1C(=O)Nc1nccs1
[3]
  IC50: > 64 µM (inactive)
[4]
  AC50: 15.8 µM (inconclusive)

## Cc1ccc(-c2nn(-c3ccccc3)cc2/C=N/NC(=O)c2ccncc2)o1
[5]
  IC50: 0.22 µM (active)
[6]
  CC50: > 20 µM (active)
[7]
  CC50: 32.8 µM (active)

## Cc1nc(N2CCOCC2)c2nc(-c3ccccc3)n(CCN3CCOCC3)c2n1
[2]
  AC50: 10 µM (inconclusive)

## O=[N+]([O-])c1ccc(/C=N/c2ccc(Cl)c([N+](=O)[O-])c2)s1
[1]
  AC50: 2.99 µM (active)
[8]
  IC50: 3.07 µM (active)
[9]
  IC50: 2.35 µM (active)

## O=C1C=C(O)C(=O)c2ccccc21 [LAWSONE]
[2]
  AC50: 25.1 µM (inconclusive)

## O=S(=O)(Nc1nc2ccccc2nc1N1CCN(c2ccccn2)CC1)c1ccc(Cl)cc1
[1]
  AC50: 6.23 µM (active)

## CC(=O)Nc1ccc(C2C(C)CCC3C(=O)N4C(CCC(C)[C@@H]4c4ccc(NC(C)=O)cc4)C(=O)N32)cc1 (stereo partly drawn)
[2]
  AC50: 3.16 µM (inconclusive)

## COc1ccc(C(NC(C)=O)c2ccc3cccnc3c2O)c(OC)c1 (stereo not drawn)
[10]
  EC50: 8.62 µM (active)
[11]
  AC50: 1.09 µM (active)
[12]
  AC50: 2.68 µM (active)
[13]
  EC50: > 350 µM (not active)
[14]
  AC50: 1.74 µM (active)
[15]
  AC50: 2.16 µM (active)
[16]
  AC50: 5.15 µM (active)

## Cc1ccc(S(=O)(=O)CCC(=O)NCc2ccccc2Cl)cc1
[3]
  IC50: > 64 µM (inactive)

## COc1cc2ccnc(Cc3cccc(OC)c3OC)c2cc1OC
[12]
  AC50: 40.7 µM (active)
[14]
  AC50: 4.64 µM (active)
[15]
  AC50: 5.35 µM (active)

## O=C(/C=C/c1ccccc1)c1ccc(O)cc1O [2',4'-DIHYDROXYCHALCONE]
[2]
  AC50: 1.58 µM (inconclusive)

## COc1cc(C(=O)OC2CC[C@]3(C)C4CCC5[C@]6(O)CC(O)[C@]7(O)C(CN8CC(C)CCC8[C@]7(C)O)[C@]6(O)C[C@@]53O[C@]24O)cc(OC)c1OC (stereo partly drawn)
[2]
  AC50: 20 µM (inconclusive)

## O=C(Nc1nc(-c2ccccn2)cs1)C1COc2ccccc2O1 (stereo not drawn)
[1]
  AC50: 5.85 µM (active)
[12]
  AC50: 47.6 µM (active)
[17]
  CC50: 10 µM (active)
[14]
  AC50: 5.81 µM (active)
[15]
  AC50: 4.69 µM (active)
[18]
  IC50: 10.7 µM (active)

## COc1ccc(CNC(=O)c2cc3c(C)nc4ccccc4c3o2)c(OC)c1
[12]
  AC50: 3.5 µM (active)
[19]
  EC50: > 112 µM (not active)
[20]
  EC50: > 112 µM (not active)
[14]
  AC50: 3.22 µM (active)
[15]
  AC50: 2.47 µM (active)

## CCOc1cc(C=C(C(=O)OC)C(=O)OC)ccc1OCc1ccc([N+](=O)[O-])cc1
[21]
  EC50: 11.9 µM (active)
[22]
  IC50: > 20 µM (inactive)
[23]
  EC50: 16.9 µM (active)
[24]
  IC50: 3.72 µM (active)
[25]
  IC50: 5.8 µM (active)
[26]
  EC50: 18 µM (active)

## O=C(/C=C/c1ccco1)c1ccccc1O
[3]
  IC50: 50 µM (inactive)

## Nc1nc(N)c2cc(S(=O)(=O)c3cccc(C(F)(F)F)c3)ccc2n1
[12]
  AC50: 5.52 µM (active)
[14]
  AC50: 5.22 µM (active)
[15]
  AC50: 16.9 µM (active)

## CCNCC(O)COCC(O)CNCC (stereo not drawn)
[3]
  IC50: > 64 µM (inactive)

## O=c1cc(-c2ccccc2)oc2c(O)c(O)ccc12 [7,8-DIHYDROXYFLAVONE]
[2]
  AC50: 39.8 µM (inconclusive)

## N#Cc1c(NCCN)nc(-c2ccccc2)c2c1CCCC2
[17]
  CC50: 16.4 µM (active)

## Oc1c(CN2CCOCC2)cc(CN2CCOCC2)c(O)c1O
[27]
  IC50: 15.2 µM (active)

## CC(C)N1C/C(=C/c2cccnc2)C(=O)/C(=C/c2cccnc2)C1
[16]
  AC50: 14.2 µM (active)

## COc1ccc(NC(=O)Nc2ccc3c(c2)C(=O)N([C@H](C)CO)C[C@H](C)[C@H](CN(C)S(=O)(=O)c2ccc(C)cc2)O3)cc1
[28]
  AC50: 3.61 µM (active)
[29]
  AC50: 11.2 µM (active)

## O=C(O)CS(=O)(=O)c1ccc(-c2ccc(S(=O)(=O)CC(=O)O)cc2)cc1
[30]
  IC50: > 100 µM (not active)

## CCC(NCc1ccc(F)cc1)=C1C(=O)N(C)C(=O)N(C)C1=O
[29]
  AC50: 12.2 µM (active)

## CCC1=Nc2cc(C(=O)NCc3cccnc3)ccc2Sc2ccc(C)cc21
[31]
  EC50: 101 µM (active)
[32]
  AC50: 0.493 µM (active)
[33]
  EC50: 3.06 µM (active)
[34]
  EC50: 4.48 µM (active)
[35]
  EC50: 16.6 µM (active)

## Cc1nn(-c2ccccc2)c(C)c1C(=O)OC(C)C(=O)NC1CCCCC1 (stereo not drawn)
[12]
  AC50: 41.8 µM (active)
[14]
  AC50: 8.19 µM (active)
[15]
  AC50: 25.8 µM (active)

## C[C@@H]1CN([C@@H](C)CO)C(=O)c2cc(NC(=O)c3ccccc3)ccc2O[C@@H](C)CCCCO[C@H]1CN(C)Cc1ccc(C(F)(F)F)cc1
[36]
  AC50: 10.1 µM (active)

## C[C@@H]1CN([C@@H](C)CO)C(=O)Cc2cc(N(C)C)ccc2O[C@H]1CN(C)Cc1ccc(Oc2ccccc2)cc1
[36]
  AC50: 11 µM (active)
